According to publication PMC11859309, “Design, Synthesis, and Computational Evaluation of 3,4-Dihydroquinolin-2(1H)-One Analogues as Potential VEGFR2 Inhibitors in Glioblastoma Multiforme” (Pharmaceuticals, 2025):
One block for each compound: values may come before it.

Legend:
[1] = tested on: U87-MG glioblastoma cell line; experiment: MTT cell proliferation assay, U87-MG; type: cell-based; conditions: for IC50: 0–160 μM; for activity at 10 µM: compound 10 μM, 48 h, read-out: Cell Proliferation ± Std dev. (%) U87
Description: (§1) U87-MG (HTB-16) and U138-MG (HTB-14) lines were purchased from ATCC. The cells were cultured in DMEM-HG Medium (41966-029, Gibco, Grand Island, NE, USA) and supplemented with 10% fetal bovine serum (FBS, 10500-064, Gibco) and 1% Penicillin–Streptomycin (P/S, 15140-122, Gibco). After 24 h of seeding cells, all compounds dissolved in 0.4% dimethyl sulfoxide (DMSO, A3672-0250, AppliChem, Darmstadt, Germany) were treated in the cells.
(§2) The proliferation effects of the drug candidates on the U87-MG and U138-MG cell lines were tested using the MTT (3-(4,5-dimethylthiazol-2-yl)-2,5-diphenyltetrazolium bromide) assay. A total of 7 × 10^3 cells per well of both U87-MG and U138-MG cells were seeded into a 96-well plate in triplicate for the assay. After 24 h, each compound was added at a dose of 10 μM and incubated for 48 h. After the incubation period, 10 μL of MTT solution (5 mg/mL in PBS) was added to each well. The MTT solution was aspirated from the wells after 2 h. Then, 100 μL of DMSO was added and mixed to dissolve the formazan crystals. Cell proliferation was analysed by measuring the absorbance of the dissolved formazan at a wavelength of 570 nm using a microplate reader (Epoch, San Jose, CA, USA). […] Each experiment was carried out in triplicate to ensure reliability and statistical significance.

[2] = PAMPA, BBB-mimicking membrane; type: in vitro ADME; conditions: 500 μM, 18 h, 37 °C
Description: (§3) The permeability of the synthesised compounds was evaluated using the parallel artificial membrane permeability assay (PAMPA) to estimate their ability to cross biological membrane mimics of both the gastrointestinal (GI) membrane and the blood–brain barrier (BBB).
(§4) The PAMPA assay (BioAssay System, Hayward, CA 94545, USA) has been used for testing the permeability rates of drugs through the BBB-mimicking membrane. […] The permeability assay was performed for 18 h in a 37 °C incubator.

[3] = PAMPA, GI-mimicking membrane; type: in vitro ADME; conditions: class relative to high and low permeability controls
Description: as §3, §4

[4] = tested on: U138-MG glioblastoma cell line; experiment: MTT cell proliferation assay, U138-MG; type: cell-based; conditions: for IC50 / activity at 10 µM / inhibition at 10 µM: Homo sapiens; for IC50 / activity at 10 µM: MTT; for IC50: 0–160 μM; for activity at 10 µM: compound 10 μM, 48 h, read-out: Cell Proliferation ± Std dev. (%) U138; for inhibition at 10 µM: read-out: cell inhibition percentage (activity)
Description: as §1
as §2, with “After 24 h, each compound was added at a dose of 10 μM and incubated for 48 h.” left out

[5] = equals 100 minus cell proliferation of Table 1 (10 μM, 48 h)

Compound: O=C(COc1ccc2c(c1)CCC(=O)N2)N/N=C/c1ccc(-c2ccccc2)cc1 [4v, (E)-N′-([1,1′-Biphenyl]-4-Ylmethylene)-2-((2-Oxo-1,2,3,4-Tetrahydroquinolin-6-Yl)Oxy)Acetohydrazide]
IC50 ([1]; Homo sapiens, U-87 MG): 11.7 µM

Compound: Cn1nnc2c(C(N)=O)ncn2c1=O [TMZ, temozolomide, reference compound]
IC50 ([1]; Homo sapiens, U-87 MG): 92.9 µM | activity at 10 µM ([1]; Homo sapiens, U-87 MG): 80 ± 5% | Permeability through BBB-mimicking membrane (class in words) [2]: lower permeability | Permeability through GI-mimicking membrane (class in words) [3]: lower permeability | IC50 [4]: 93.1 µM | activity at 10 µM [4]: 78 ± 5%

Compound: O=C(COc1ccc2c(c1)CCC(=O)N2)N/N=C/c1cccc(Oc2ccc(Cl)cc2)c1 [4t, (E)-N′-(3-(4-Chlorophenoxy)Benzylidene)-2-((2-Oxo-1,2,3,4-Tetrahydroquinolin-6-Yl)Oxy)Acetohydrazide]
IC50 [1]: 10.5 µM | IC50 ([1]; Homo sapiens, U-87 MG): 10.7 µM | activity at 10 µM ([1]; Homo sapiens, U-87 MG): 50 ± 3.2% | Permeability through BBB-mimicking membrane (class in words) [2]: high permeability | activity at 10 µM [4]: 65 ± 3.5%

Compound: O=C(COc1ccc2c(c1)CCC(=O)N2)N/N=C/c1ccc(Cl)cc1 [4b, (E)-N′-(4-Chlorobenzylidene)-2-((2-Oxo-1,2,3,4-Tetrahydroquinolin-6-Yl) Oxy) Acetohydrazide]
inhibition at 10 µM [4, 5]: 40%

Compound: O=C(COc1ccc2c(c1)CCC(=O)N2)N/N=C1\C(=O)Nc2ccc([N+](=O)[O-])cc21 [4o, (Z)-N′-(5-Nitro-2-Oxoindolin-3-Ylidene)-2-((2-Oxo-1,2,3,4-Tetrahydroquinolin-6-Yl)Oxy)Acetohydrazide]
cell inhibition percentage (activity) [4, 5]: moderate activity

Compound: CCCc1ccc(/C=N/NC(=O)COc2ccc3c(c2)CCC(=O)N3)cc1 [4h, (E)-2-((2-Oxo-1,2,3,4-Tetrahydroquinolin-6-Yl)Oxy)-N′-(4-Propylbenzylidene)Acetohydrazide]
Permeability through BBB-mimicking membrane (class in words) [2]: high permeability | activity at 10 µM [4]: 100 ± 2.3% | inhibition at 10 µM [4, 5]: 0%

Compound: O=C(COc1ccc2c(c1)CCC(=O)N2)N/N=C/c1cnc(-c2ccc(Cl)cc2)nc1 [4q, (E)-N′-((2-(4-Chlorophenyl)Pyrimidin-5-Yl)Methylene)-2-((2-Oxo-1,2,3,4-Tetrahydroquinolin-6-Yl)Oxy)Acetohydrazide]
activity at 10 µM ([1]; Homo sapiens, U-87 MG): 67 ± 4.9% | IC50 [4]: 8 µM | activity at 10 µM [4]: 39 ± 3% | inhibition at 10 µM [4, 5]: 61%

Compound: O=C(COc1ccc2c(c1)CCC(=O)N2)N/N=C/c1ccc(-c2ccc(Cl)cc2)cc1 [4w, (E)-N′-((4′-Chloro-[1,1′-Biphenyl]-4-Yl)Methylene)-2-((2-Oxo-1,2,3,4-Tetrahydroquinolin-6-Yl)Oxy)Acetohydrazide]
activity at 10 µM ([1]; Homo sapiens, U-87 MG): 63 ± 2.5% | activity at 10 µM [4]: 80 ± 6.9% | inhibition at 10 µM [4, 5]: 20%

Compound: CN1C(=O)/C(=N\NC(=O)COc2ccc3c(c2)CCC(=O)N3)c2cc(F)ccc21 [4l, (Z)-N′-(5-Fluoro-1-Methyl-2-Oxoindolin-3-Ylidene)-2-((2-Oxo-1,2,3,4-Tetrahydroquinolin-6-Yl)Oxy)Acetohydrazide]
activity at 10 µM [4]: 73 ± 3.6%

Compound: O=C(COc1ccc2c(c1)CCC(=O)N2)N/N=C/c1ccc(F)cc1 [4s, (E)-N′-(4-Fluorobenzylidene)-2-((2-Oxo-1,2,3,4-Tetrahydroquinolin-6-Yl)Oxy)Acetohydrazide]
Permeability through GI-mimicking membrane (class in words) [3]: high permeability

Continued, values first:

IC50 [4]: 9.2 µM
Compound: Cc1[nH]c2ccccc2c1/C=N/NC(=O)COc1ccc2c(c1)CCC(=O)N2 [4g, (E)-N′-((2-Methyl-1H-Indol-3-Yl)Methylene)-2-((2-Oxo-1,2,3,4-Tetrahydroquinolin-6-Yl)Oxy)Acetohydrazide]

Permeability through GI-mimicking membrane (class in words) [3]: high permeability
Compound: O=C(COc1ccc2c(c1)CCC(=O)N2)NN=Cc1cccs1 [4d, 2-((2-Oxo-1,2,3,4-Tetrahydroquinolin-6-Yl)Oxy)-N′-(Thiophen-2-Ylmethylene)Acetohydrazide]

IC50 [4]: 4.2 µM
Compound: O=C(COc1ccc2c(c1)CCC(=O)N2)N/N=C1\C(=O)Nc2ccc(F)cc21 [4m, (Z)-N′-(5-Fluoro-2-Oxoindolin-3-Ylidene)-2-((2-Oxo-1,2,3,4-Tetrahydroquinolin-6-Yl)Oxy)Acetohydrazide]

Permeability through BBB-mimicking membrane (class in words) [2]: high permeability
Compound: O=C(COc1ccc2c(c1)CCC(=O)N2)N/N=C/c1ccccc1 [4j, (E)-N′-Benzylidene-2-((2-Oxo-1,2,3,4-Tetrahydroquinolin-6-Yl)Oxy)Acetohydrazide]

IC50 ([1]; Homo sapiens, U-87 MG): 7.96 µM
Compound: O=C(COc1ccc2c(c1)CCC(=O)N2)N/N=C/c1cccc2ccccc12 [4u, (E)-N′-(Naphthalen-1-Ylmethylene)-2-((2-Oxo-1,2,3,4-Tetrahydroquinolin-6-Yl)Oxy)Acetohydrazide]
